From patent publication US20090239749A1, “Biocidal compositions” (priority 2006, published 2009)
Values after ≈ are worked out from the molar mass of the structure shown.

How the values were obtained:
[1] = cited from earlier work
Candida albicans (CA) = test: Minimum Inhibitory Concentration (MIC) test in YEME media, 96 well plate; assay type: cell-based
Description: These materials produced according to Examples 4-6 were examined for their biocidal efficacy by following a standardised Minimum Inhibitory Concentration (MIC) test. The test consisted of known number of cells of a strain of Candida albicans (CA) in YEME (yeast extract malt extract media), inoculating concentrations of the active material and blanks contained in a 96 well plate. The plates were incubated at 37° C. overnight, and then examined with a UV plate reader at a wavelength of 550 nm.
Equivalent experiments were also conducted to determine the MIC for the biocide active dissolved in a water miscible solvent. In these cases the “blank” reference material was simply a sample of the solvent containing no active compound.
All experiments were repeated 4 times.
All experiments were conducted in YEME media against a CA culture.

MIC (Candida albicans (CA); ketoconazole, initial concentration 0.15 mg/ml active, incubated overnight 37° C.) | Compound | solubility in water [1] | MIC (Candida albicans (CA); dissolved in a water/propylene glycol cosolvent mixture)
 | CC1(C)[C@H](C(=O)O[C@H](C#N)c2cccc(Oc3ccccc3)c2)[C@@H]1/C=C(\Cl)C(F)(F)F (racemic) [λ-cyhalothrin] | 0.005 µg/mL (≈ 0.0111 µM) | 
 | CO/C=C(/C(=O)OC)c1ccccc1Oc1cc(Oc2ccccc2C#N)ncn1 [Azoxystrobin, methyl(E)-2-{2-[6-(2-cyanophenoxy)pyrimidin-4-yloxy]phenyl}-3-methoxyacrylate] | ~6 µg/mL (≈ 14.9 µM) | 
 | N#Cc1c(Cl)c(Cl)c(Cl)c(C#N)c1Cl [Chlorothalonil, 2,4,5,6-tetrachloroisophthalonitrile] | ~0.6 µg/mL (≈ 2.26 µM) | 
65 µg/mL (≈ 122 µM) | CC(=O)N1CCN(c2ccc(OCC3COC(Cn4ccnc4)(c4ccc(Cl)cc4Cl)O3)cc2)CC1 (stereo not shown) [Ketoconazole, acetyl-dichlorophenyl-imidazole] |  | 
 | CCCC1COC(Cn2cncn2)(c2ccc(Cl)cc2Cl)O1 (stereo not shown) [Propiconazole, 1-(2-(2,4-dichlorophenyl)-4-propyl-1-1,3-dioxolan-2-ylmethyl)-1H-1,2,4-tri azole] | around 100 mg/L | 91.6 µg/mL (≈ 268 µM)
 | Oc1cc(Cl)ccc1Oc1ccc(Cl)cc1Cl [Triclosan, 5-chloro-2-(2,4-dichlorophenoxy)-phenol] | 17 µg/mL (≈ 58.7 µM) | 
